Measurements from patent US11446352B2, “Compositions and methods for inhibiting tumor-induced immune suppression” (priority 2017, dated 2022).

How the values were obtained:
E0771 tumors = assay: re-challenge of cured mice with E0771 cells (immune memory); assay type: in vivo; settings: EnnA/CPA-treated group re-challenged with 50,000 E0771 cells; tumors completely eliminated 10 days later
Description: FIG. 6A is a line graph of tumor volume (mm^3) versus days post implantation. FIG. 6B-6E are images of three representative mice from each indicated group at the end of the treatment. FIGS. 6F-6I are a panel of images of mice from the CPA+EnnA group monitored for tumor recurrence for two more months (3 months post implantation). No tumor recurrence was observed. They were re-challenged with 50,000 E0771 cells implanted in the opposite fat pad. Five Naïve mice were used as controls. Upper panels and lower show luciferase luminescence images of mice bearing tumors at 7 and 17 days after the second implantation, respectively.
The anti-tumor activity of EnnA involves both cytotoxicity and clearance by T cells. […] Indeed, EnnA/CPA-treated mice remained tumor-free for 2 months after the end of EnnA treatment. To test whether the cured mice developed immune memory, […] 50,000 E0771 tumor cells.

E0771 cells = assay: MTT cell proliferation assay; assay type: cell-based, murine; settings: E0771, in vitro, 72 h
Description: FIGS. 2I-2K show FACS analysis of Hsp90β expression on the cell surface of E0771 cells treated with DMSO or EnnA. FIGS. 2L-2N show FACS analysis of the ratio of Hsp90α to Hsp90β expression on the cell surface of E0771 cells treated with DMSO or EnnA. FIGS. 2O-2Q show FACS analysis of Hsp90α expression on the cell surface of E0771 cells treated with DMSO or EnnA. FIG. 2R is a bar graph showing expression of Hsp90β on the surface of AT3 cells treated with DMSO or EnnA. FIG. 2S is a bar graph showing expression of Hsp90α on the surface of AT3 cells treated with DMSO or EnnA. FIGS. 2T-2X show FACS analysis of Hsp90β expression on the surface of E0771 tumor cells treated with mIgG, DMSO, or EnnA.
The mechanism of action of EnnA appears to be different from that of 17-AAG. […] Further studies studies using murine breast cancer cells lines have shown that EnnA kills E0771, AT3, EMT6 and 4T1 in vitro (FIG. 2A-2D).

CC[C@H](C)[C@H]1C(=O)O[C@H](C(C)C)C(=O)N(C)[C@@H]([C@@H](C)CC)C(=O)O[C@H](C(C)C)C(=O)N(C)[C@@H]([C@@H](C)CC)C(=O)O[C@H](C(C)C)C(=O)N1C [EnnA, Enniatin A]
mice showing small tumors seven days after the second implantation (E0771 tumors): two of the seven | IC50 (E0771 cells): 5 to 10 µM
